Measurements published in paper PMC9101373, “Design of DNA Intercalators Based on 4-Carboranyl-1,8-Naphthalimides: Investigation of Their DNA-Binding Ability and Anticancer Activity” (International Journal of Molecular Sciences, 2022).
Read-outs that look alike come from different tables or passages of the source.

How the values were obtained:
calf thymus DNA (ct-DNA) [1] = experiment: Melting temperature (Tm) measurements of ct-DNA, thermal denaturation; assay type: binding; details: for ΔTm ct-DNA: r = [compound]/[ct-DNA] = 0.3, pH 7.0, 20 mM cacodylate buffer, Tm of ct-DNA alone 74 °C; for effect on thermal stability of ct-DNA (in words): thermal melting experiments
Description: The melting temperature (Tm) of DNA is defined as the temperature at which 50% of the DNA is in form of single strands forming randomly coiled structures. DNA melting is measured by the absorbance of UV light (260 nm) by the DNA solution, where the amount of UV light absorbed is proportional to the fraction of non-bonded base pairs. The majority of DNA-binding small molecules known thus far stabilize duplex DNA against heat denaturation. A high, drug-induced increase in the Tm of DNA is generally viewed as an excellent criterion to select DNA ligands and is a common feature of several anticancer drugs such as intercalators (a significant increase in Tm = 3–8 °C is observed for strong intercalation) and alkylators. The reverse situation (destabilization of DNA to facilitate its denaturation) may be an attractive option to identify therapeutic agents acting on the DNA structure.
Our study conducted Tm measurement to estimate the impact of 1,8-naphthalimides bearing the carborane cluster on DNA stabilization (Table 1, Figures S249–S253, ESI).
The measurements were performed by adding aliquots of DMSO stock solution of the tested compounds to the buffer solution (pH 7.0, 20 mM, cacodylate buffer, DMSO content of the final solution = 0.24–0.36%). The Tm curves were collected at r = 0.3 (r = [compound]/[ct-DNA]) to assure the dominant binding mode. Thermal melting curves were determined by following the absorption change at 260 nm as a function of temperature by using a GBC Cintra10 UV–vis spectrometer (Dandenong, Australia) equipped with a GBC Thermocell Peltier Power Supply (Dandenong, Australia) using a 1 cm path length cell. The absorbance of the samples was monitored at 260 nm from 30 to 90 °C (95 °C for compounds 54–61) with a heating rate of 1 °C/min. Tm values are the midpoints or the transition curves determined from the maximum of the first derivative. The ΔTm values were calculated by subtracting the Tm of the free nucleic acid from the Tm of the sample. Every Tm value reported in this study was average at least three measurements. The error in Tm was 0.5 °C.

HepG2 cells [2] = experiment: In vitro cytotoxic activity, MTT assay; assay type: cell-based, human; details: 24 h treatment, read-out: IC50, compound concentration required to inhibit cell growth by 50%
Description: The obtained 1,8-naphthalimide–carborane conjugates were investigated for their in vitro antitumor activity by examining their cytotoxic effects using the MTT tetrazolium dye assay against the human cancer cell line HepG2 established from hepatocellular carcinoma. IC50 refers to the drug concentration (µM) required to inhibit cell growth by 50%.
The cytotoxic properties of the synthesized compounds were evaluated using the human hepatocellular carcinoma cell line HepG2 established from hepatocellular carcinoma. The HepG2 cell line was purchased from ECACC (Salisbury, UK). Cells were grown in EMEM medium (Corning®) supplemented with 10% heat-inactivated fetal bovine serum (FBS) (Corning®) and antibiotics (Corning®), at 37 °C in a 5% CO2 atmosphere. Upon reaching 80–90% confluency, cells were detached with the trypsin (Corning®) and transferred into 96-well microplates at a density of 12 × 10^3. After overnight incubation at 37 °C in a humidified atmosphere containing 5% CO2, the cells were treated for the next 24 h with compounds. The stock solution of each compound was prepared in DMSO at 10 mM. The cytotoxicity was evaluated by the MTT assay. […] Subsequently, the medium was aspirated and replaced with 3-(4,5-dimethylthiazol-2-yl)-2,5-diphenyltetrazolium bromide (MTT) dye solution (50 µL, 0.5 mg/mL). After 3 h incubation, the resulting MTT formazan crystals were dissolved in DMSO (100 µL). To ensure the complete dissolution of formazan, the plates were shaken on an orbital microplate shaker at 1000 rpm for 15 min (Thermoshaker NeoLab 7–0055, Bionovo, Legnica, Poland). The optical density of each well was then measured on a VICTOR Nivo multimode plate reader at a wavelength of 570 nm. Each experiment consisted of 6 replications of each concentration, and each experiment was repeated three times independently. The results were calculated as a percentage of control group viability. The IC50 values were determined using a non-linear regression from the plot of % viability against log dose of compounds by using GraphPad Prism 6.0 software (GraphPad, San Diego, CA, USA).

human topoisomerase IIα = target: T1, human topoisomerase IIα (Homo sapiens, UniProt P11388); experiment: Human topoisomerase IIα relaxation assay; assay type: biochemical; details: for IC50: supercoiled pBR322, concentration range 0.1–100 µM, read-out: IC50, compound concentration required to inhibit the activity of this enzyme by 50%
T1 construct: purchased Inspiralis (Norwich, UK)
T1 sequence (P11388 whole entry): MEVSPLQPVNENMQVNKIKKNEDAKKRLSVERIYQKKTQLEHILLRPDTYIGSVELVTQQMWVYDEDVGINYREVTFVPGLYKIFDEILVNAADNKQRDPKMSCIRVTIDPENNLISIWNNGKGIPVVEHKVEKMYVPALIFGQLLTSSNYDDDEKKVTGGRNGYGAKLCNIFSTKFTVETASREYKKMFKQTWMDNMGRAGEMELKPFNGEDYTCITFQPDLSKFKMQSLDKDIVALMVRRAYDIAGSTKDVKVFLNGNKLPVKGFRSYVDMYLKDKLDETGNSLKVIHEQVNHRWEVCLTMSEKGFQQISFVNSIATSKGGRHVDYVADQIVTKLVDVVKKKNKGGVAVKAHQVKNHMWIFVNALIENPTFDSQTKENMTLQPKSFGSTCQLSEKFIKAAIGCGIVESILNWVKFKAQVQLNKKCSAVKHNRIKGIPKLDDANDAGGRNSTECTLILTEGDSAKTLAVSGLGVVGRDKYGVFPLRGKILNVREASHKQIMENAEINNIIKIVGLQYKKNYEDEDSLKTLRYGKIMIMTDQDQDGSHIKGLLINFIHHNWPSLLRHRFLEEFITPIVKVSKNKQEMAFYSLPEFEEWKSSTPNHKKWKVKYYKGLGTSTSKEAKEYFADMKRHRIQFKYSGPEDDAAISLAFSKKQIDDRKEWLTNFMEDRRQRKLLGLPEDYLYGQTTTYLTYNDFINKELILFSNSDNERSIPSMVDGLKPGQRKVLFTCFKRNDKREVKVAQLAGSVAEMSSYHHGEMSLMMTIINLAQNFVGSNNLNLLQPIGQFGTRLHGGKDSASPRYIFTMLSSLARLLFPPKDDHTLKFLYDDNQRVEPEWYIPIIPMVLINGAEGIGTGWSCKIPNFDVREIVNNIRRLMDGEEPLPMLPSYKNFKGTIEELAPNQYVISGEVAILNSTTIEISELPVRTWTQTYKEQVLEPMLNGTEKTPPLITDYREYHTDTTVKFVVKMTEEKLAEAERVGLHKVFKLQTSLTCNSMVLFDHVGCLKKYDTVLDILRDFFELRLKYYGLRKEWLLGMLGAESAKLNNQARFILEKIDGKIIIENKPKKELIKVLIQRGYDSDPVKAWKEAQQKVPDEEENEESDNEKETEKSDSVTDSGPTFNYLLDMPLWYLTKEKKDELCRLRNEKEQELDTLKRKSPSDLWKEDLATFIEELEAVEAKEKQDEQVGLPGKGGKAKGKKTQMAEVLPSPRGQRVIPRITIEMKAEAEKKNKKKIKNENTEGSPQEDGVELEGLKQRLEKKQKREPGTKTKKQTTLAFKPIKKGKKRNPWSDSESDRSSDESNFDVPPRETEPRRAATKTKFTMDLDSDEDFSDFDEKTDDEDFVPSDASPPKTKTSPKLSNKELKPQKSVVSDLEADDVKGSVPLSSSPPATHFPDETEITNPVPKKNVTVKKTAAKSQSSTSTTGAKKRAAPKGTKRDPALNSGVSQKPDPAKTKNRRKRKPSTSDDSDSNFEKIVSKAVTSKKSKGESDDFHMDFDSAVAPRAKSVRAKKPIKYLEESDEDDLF
Description: Therefore, we subjected these compounds to further detailed analyses of inhibitory potential within the concentration range of 0.1–100 µM (Figure S301, ESI) to calculate IC50 values. IC50 refers to the compound concentration (µM) required to inhibit the activity of the topoisomerase enzyme by 50%.
The Human Topoisomerase II-alpha Relaxation Assay Kit was purchased from Inspiralis (Norwich, UK). The Topo IIα inhibition assay was performed as described by the manufacturer. […] Next, TopoIIα (1 U) was added, and the reaction mixture was incubated at 37 °C for an additional 45 min. The reaction was terminated by addition of the STEB buffer (40 % (w/v) sucrose, Tris-HCl (100 mM, pH 8), EDTA (1 mM), bromophenol blue (0.5 mg/mL)). The products were analyzed by electrophoresis using agarose gel (1%) in TAE buffer at 70 V for 2 h, followed by ethidium bromide staining. […] The percentage of Topo-II alpha activity inhibition was calculated by densitometric quantification (Quantity One software, Bio-Rad). The occurrence of a band representing supercoiled DNA on an agarose gel indicated the inhibition of enzyme activity.

calf thymus DNA (ct-DNA) [3] = experiment: UV–vis absorption titration with ct-DNA, binding constant Kb; details: 10 µM compound, ct-DNA 1.25–15 µM
Text: The interaction of 1,8-naphthalimides bearing carborane clusters with ct-DNA was also studied by UV–vis absorption titration to better understand the mode of interaction and binding strength. For compounds interacting with DNA by intercalation, bathochromic and hypochromic effects are observed in the absorption spectra. The spectral changes observed in the electronic absorption of 6–11, 16–19, 36–43, and 54–61 in the absence and presence of ct-DNA are illustrated in Figures S271–S296 (ESI). Progressive addition of ct-DNA at the concentration of 1.25–15 µM to a fixed amount of modified naphthalic anhydride or naphthalimide (10 µM concentration) decreased absorbance for almost all the tested modified conjugates, except conjugates 14, 15, and 22–27 for which changes in absorbance were not observed. […] Hypochromicity (10–56%) was also observed for all conjugates, with the highest value for compound 40.
To compare the DNA-binding strength of the tested conjugates, we calculated the binding constant Kb, as described in the Materials and Methods section. […] For conjugates 14, 15, and 22–27, the Kb value could not be determined due to the lack of noticeable changes in the UV spectra.
The measurements were performed by adding aliquots of DMSO stock solution of the tested compounds to the buffer solution (pH 7.4, 20 mM, 50 mM NaCl, Tris-HCl buffer, DMSO content of the final solutions = 0.40–0.61%) to the final concentration of 10 µM. The tested compounds were incubated 5 min, with increasing concentrations ranging from 0 to 15 µM of ct-DNA at 37 °C, then the UV–vis absorption spectra, between 310 and 500 nm (310–550 nm for compounds 36–43 and 54–61), were recorded using a GBC Cintra10 UV–vis spectrometer (Dandenong, Australia) equipped with a GBC Thermocell Peltier Power Supply (Dandenong, Australia) using a 1 cm path length cell. The binding constant was calculated according to the following equation [53]: A0/A−A0=εG/εH−G−εG +εG/εH−G−εG ×1/Kb[DNA] where Kb is the binding constant, A0 and A are the absorbance of the free tested compound, and the apparent one, εG and εH−G are their coefficient, respectively, and [DNA] is the concentration of [DNA] in the base pair. The slope to intercept ratio of the plot between A0/A − A0 versus 1/[DNA] yielded the binding constant.

calf thymus DNA (ct-DNA) [4] = tested on: calf thymus DNA (ct-DNA); set-up: method as in PMID 33803403; details: unmodified mitonafide and pinafide; cited from earlier work
HepG2 cells [5] = tested on: HepG2 cells; set-up: method as in PMID 31776032; details: read-out: IC50, compound concentration required to inhibit cell growth by 50%; cited from earlier work
HepG2 cells [6] = tested on: HepG2 cells; set-up: method as in PMID 31776032; details: cited from earlier work

Question: With “4-{1-[3-(1,2-Dicarba-closo-dodecaborane-1-yl)propyl]-1H-1,2,3-triazol-4-yl}-1,8-naphthalic anhydride [Compound 6]” as the compound, how does the “ΔTm ct-DNA” value (calf thymus DNA (ct-DNA) [1]) read?
Answer: −0.33 °C

Question: What about the “effect on thermal stability of ct-DNA (in words)” value (calf thymus DNA (ct-DNA) [1]) of the same compound?
Answer: destabilization

Question: And the IC50 (HepG2 cells [2])?
Answer: 71.2 ± 1.78 µM

Question: And the IC50 (human topoisomerase IIα)?
Answer: 7.73 µM

Question: For “N-[2-(N-Pyrrolidinyl)ethyl]-4-[(2-(3-(1,2-dicarba-closo-dodecaborane-1-yl)propanamido)ethyl)amino]-1,8-naphthalimide [Compound 38]”, which “ΔTm ct-DNA” value (calf thymus DNA (ct-DNA) [1]) is on record?
Answer: 1.00 °C

Question: What about the IC50 (HepG2 cells [2]) of the same compound?
Answer: 10.1 ± 1.85 µM

Question: And the “fold less active than compound 8 (Topo IIα IC50)” value (human topoisomerase IIα)?
Answer: ~5 fold

Question: And the IC50 (human topoisomerase IIα)?
Answer: 2.81 µM

Question: Which results are given for “N-[2-(Dimethylamino)ethyl]-4-{1-[3-(1,2-dicarba-closo-dodecaborane-1-yl)propyl]-1H-1,2,3-triazol-4-yl}-1,8-naphthalimide [Compound 8]”?
Answer: ΔTm ct-DNA (calf thymus DNA (ct-DNA) [1]): 0.33 °C; IC50 (HepG2 cells [2]): 9.65 ± 1.02 µM; IC50 (human topoisomerase IIα): 0.58 µM

Question: What does the source list for “N-[2-(N-Pyrrolidinyl)ethyl]-4-{1-[3-(1,2-dicarba-closo-dodecaborane-1-yl)propyl]-1H-1,2,3-triazol-4-yl}methoxy-1,8-naphthalimide [Compound 17]”?
Answer: ΔTm ct-DNA (calf thymus DNA (ct-DNA) [1]): 0.67 °C; bathochromic shift (calf thymus DNA (ct-DNA) [3]): 1–2 nm; IC50 (HepG2 cells [2]): 36.9 ± 3.72 µM

Question: What does the source list for “N-[2-(Dimethylamino)ethyl]-4-[(2-(3-(1,7-dicarba-closo-dodecaborane-1-yl)propanamido)ethyl)amino]-1,8-naphthalimide [Compound 37]”?
Answer: ΔTm ct-DNA (calf thymus DNA (ct-DNA) [1]): 2.00 °C; effect on thermal stability of ct-DNA (in words) (calf thymus DNA (ct-DNA) [1]): better DNA stabilization; IC50 (HepG2 cells [2]): 10.5 ± 0.53 µM; IC50 (human topoisomerase IIα): 7.49 µM

Question: For “N-[2-(N-Pyrrolidinyl)ethyl]-4-{1-[3-(1,7-dicarba-closo-dodecaborane-1-yl)propyl]-1H-1,2,3-triazol-4-yl}-1,8-naphthalimide [Compound 11]”, which “ΔTm ct-DNA” value (calf thymus DNA (ct-DNA) [1]) is on record?
Answer: 0.33 °C

Question: And the bathochromic shift (calf thymus DNA (ct-DNA) [3])?
Answer: 1–2 nm

Question: What about the IC50 (HepG2 cells [2]) of the same compound?
Answer: 14.6 ± 0.43 µM

Question: For “4-{1-[3-(1,7-Dicarba-closo-dodecaborane-1-yl)propyl]-1H-1,2,3-triazol-4-yl}methoxy-1,8-naphthalic anhydride [Compound 15]”, which “ΔTm ct-DNA” value (calf thymus DNA (ct-DNA) [1]) is on record?
Answer: 0.00 °C

Question: What about the IC50 (HepG2 cells [2]) of the same compound?
Answer: 38.1 ± 2.85 µM

Question: And the “fold less active than mitonafide (Topo IIα IC50)” value (human topoisomerase IIα)?
Answer: 12 fold

Question: What about the IC50 (human topoisomerase IIα) of the same compound?
Answer: 61.6 µM

Question: With “4-{1-[3-(1,7-Dicarba-closo-dodecaborane-1-yl)propyl]-1H-1,2,3-triazol-4-yl}-1,8-naphthalic anhydride [Compound 7]” as the compound, how does the “ΔTm ct-DNA” value (calf thymus DNA (ct-DNA) [1]) read?
Answer: 0.00 °C

Question: And the IC50 (HepG2 cells [2])?
Answer: 136 ± 4.24 µM

Question: What about the IC50 (human topoisomerase IIα) of the same compound?
Answer: 8.78 µM

Question: What does the source list for `O=C1c2cccc3cc([N+](=O)[O-])cc(c23)C(=O)N1CCN1CCCC1` [Pinafide, pinafide]?
Answer: ΔTm ct-DNA (calf thymus DNA (ct-DNA) [4]): 6.50 °C; IC50 (HepG2 cells [5]): 1.23 µM

Question: Which results are given for “N-[2-(Dimethylamino)ethyl]-4-[(2-(3-(1,2-dicarba-closo-dodecaborane-1-yl)propanamido)ethyl)amino]-1,8-naphthalimide [Compound 36]”?
Answer: ΔTm ct-DNA (calf thymus DNA (ct-DNA) [1]): 1.33 °C; effect on thermal stability of ct-DNA (in words) (calf thymus DNA (ct-DNA) [1]): better DNA stabilization; IC50 (HepG2 cells [2]): 6.03 ± 0.91 µM; IC50 (human topoisomerase IIα): 7.72 µM

Question: For `CN(C)CCN1C(=O)c2cccc3cc([N+](=O)[O-])cc(c23)C1=O` [Mitonafide, mitonafide], which IC50 (human topoisomerase IIα) is on record?
Answer: 5.13 µM

Question: What about the “ΔTm ct-DNA” value (calf thymus DNA (ct-DNA) [4]) of the same compound?
Answer: 5.17 °C

Question: And the IC50 (HepG2 cells [5])?
Answer: < 1 µM

Question: What about the “8-oxo-dG level in cellular DNA” value (HepG2 cells [6]) of the same compound?
Answer: Mitonafide—28.24 ± 0.18 per 10^6 dG [8].

Question: Which “ΔTm ct-DNA” value (calf thymus DNA (ct-DNA) [1]) does the source give for “N-[2-(N-Pyrrolidinyl)ethyl]-4-{1-[3-(1,7-dicarba-closo-dodecaborane-1-yl)propyl]-1H-1,2,3-triazol-4-yl}methoxy-1,8-naphthalimide [Compound 19]” here?
Answer: 0.67 °C

Question: What about the bathochromic shift (calf thymus DNA (ct-DNA) [3]) of the same compound?
Answer: 1–2 nm

Question: What about the IC50 (HepG2 cells [2]) of the same compound?
Answer: 15 ± 0.57 µM

Question: With “N-[2-(N-Pyrrolidinyl)ethyl]-4-[(6-(3-(1,2-dicarba-closo-dodecaborane-1-yl)propanamido)hexyl)amino]-1,8-naphthalimide [Compound 43]” as the compound, how does the “ΔTm ct-DNA” value (calf thymus DNA (ct-DNA) [1]) read?
Answer: 1.00 °C

Question: And the IC50 (HepG2 cells [2])?
Answer: 40 ± 3.89 µM
